Data from ChEMBL document CHEMBL3046563, “Synthesis and antihypertensive activity evaluation in spontaneously hypertensive rats of nitrendipine analogues” (2011).

Legend:
Format in all cases: functional, Artery
Conditions in all cases: route intragastric
Rattus norvegicus [1] = assay: Antihypertensive activity in spontaneously hypertensive Rattus norvegicus (rat) assessed as reduction of systolic blood pressure at 2 mg/kg, ig after 1 hr
Rattus norvegicus [2] = assay: Antihypertensive activity in spontaneously hypertensive Rattus norvegicus (rat) assessed as reduction of systolic blood pressure at 2 mg/kg, ig after 4 hr
Rattus norvegicus [3] = assay: Antihypertensive activity in spontaneously hypertensive rat assessed as reduction of systolic blood pressure at 2 mg/kg, ig after 2 hr
Rattus norvegicus [4] = assay: Antihypertensive activity in spontaneously hypertensive Rattus norvegicus (rat) assessed as reduction of systolic blood pressure at 4 mg/kg, ig after 8 hr
Rattus norvegicus [5] = assay: Antihypertensive activity in spontaneously hypertensive Rattus norvegicus (rat) assessed as reduction of systolic blood pressure at 4 mg/kg, ig after 1 hr
Rattus norvegicus [6] = assay: Antihypertensive activity in spontaneously hypertensive Rattus norvegicus (rat) assessed as reduction of systolic blood pressure at 4 mg/kg, ig after 6 hr
Rattus norvegicus [7] = assay: Antihypertensive activity in spontaneously hypertensive Rattus norvegicus (rat) assessed as reduction of systolic blood pressure at 4 mg/kg, ig after 2 hr
Rattus norvegicus [8] = assay: Antihypertensive activity in spontaneously hypertensive Rattus norvegicus (rat) assessed as reduction of systolic blood pressure at 4 mg/kg, ig after 4 hr
Rattus norvegicus [9] = assay: Antihypertensive activity in spontaneously hypertensive Rattus norvegicus (rat) assessed as reduction of systolic blood pressure at 1 mg/kg, ig after 1 hr
Rattus norvegicus [10] = assay: Antihypertensive activity in spontaneously hypertensive Rattus norvegicus (rat) assessed as reduction of systolic blood pressure at 1 mg/kg, ig after 2 hr

## CCCCCCCCOC(=O)C1=C(C)NC(C)=C(C(=O)OC)C1c1cccc([N+](=O)[O-])c1 (configuration not stated)
Rattus norvegicus [1]
  Activity: 38 mmHg

## CCCCCCCCCCOC(=O)C1=C(C)NC(C)=C(C(=O)OC)C1c1cccc([N+](=O)[O-])c1 (configuration not stated)
Rattus norvegicus [1]
  Activity: 31 mmHg

## CCCCCCCCCCCCOC(=O)C1=C(C)NC(C)=C(C(=O)OC)C1c1cccc([N+](=O)[O-])c1 (configuration not stated)
Rattus norvegicus [1]
  Activity: 17 mmHg

## CCCCCCCOC(=O)C1=C(C)NC(C)=C(C(=O)OC)[C@@H]1c1cccc([N+](=O)[O-])c1
Rattus norvegicus [2]
  Activity: -2 mmHg
Rattus norvegicus [1]
  Activity: 93 mmHg
Rattus norvegicus [3]
  Activity: 47 mmHg

## CCCOC(=O)C1=C(C)NC(C)=C(C(=O)OC)C1c1cccc([N+](=O)[O-])c1 (configuration not stated)
Rattus norvegicus [1]
  Activity: 43 mmHg

## CCCCCOC(=O)C1=C(C)NC(C)=C(C(=O)OC)C1c1cccc([N+](=O)[O-])c1 (configuration not stated)
Rattus norvegicus [1]
  Activity: 44 mmHg

## CCCCCCCOC(=O)C1=C(C)NC(C)=C(C(=O)OC)C1c1cccc([N+](=O)[O-])c1 (racemic)
Rattus norvegicus [2]
  Activity: -4 mmHg
Rattus norvegicus [4]
  Activity: 21 mmHg
Rattus norvegicus [1]
  Activity: 52 mmHg
Rattus norvegicus [5]
  Activity: 119 mmHg
Rattus norvegicus [6]
  Activity: 45 mmHg
Rattus norvegicus [7]
  Activity: 107 mmHg
Rattus norvegicus [8]
  Activity: 67 mmHg
Rattus norvegicus [3]
  Activity: 42 mmHg

## CCOC(=O)C1=C(C)NC(C)=C(C(=O)OC)C1c1cccc([N+](=O)[O-])c1 (stereo in doubt; 1) [NITRENDIPINE]
Rattus norvegicus [1]; 2 mg/kg
  Activity: 26 mmHg

## CCOC(=O)C1=C(C)NC(C)=C(C(=O)OC)C1c1cccc([N+](=O)[O-])c1 (stereo in doubt; 2) [NITRENDIPINE]
Rattus norvegicus [2]
  Activity: -2 mmHg
Rattus norvegicus [1]; 2 mg/kg
  Activity: 39 mmHg
Rattus norvegicus [9]
  Activity: 33 mmHg
Rattus norvegicus [10]
  Activity: 0 mmHg
Rattus norvegicus [3]
  Activity: 8 mmHg
